Reference: patent US8673909B2, “Indole compounds and methods for treating visceral pain” (NeurAxon, Inc., priority 2007, dated 2014)
Entries after “also recorded” stand apart in the source; their conditions may differ.

What was measured:
[1] = biological target: T1, Nitric oxide synthase (endothelial, human recombinant) eNOS (Homo sapiens, UniProt P29474); assay: eNOS (human) enzyme assay, [3H]-L-arginine to L-citrulline; type: biochemical; settings: Table 10, human eNOS; read-out: eNOSh
T1 construct: purchased Axxora LLC ALX-201-070
T1 sequence (P29474 whole entry): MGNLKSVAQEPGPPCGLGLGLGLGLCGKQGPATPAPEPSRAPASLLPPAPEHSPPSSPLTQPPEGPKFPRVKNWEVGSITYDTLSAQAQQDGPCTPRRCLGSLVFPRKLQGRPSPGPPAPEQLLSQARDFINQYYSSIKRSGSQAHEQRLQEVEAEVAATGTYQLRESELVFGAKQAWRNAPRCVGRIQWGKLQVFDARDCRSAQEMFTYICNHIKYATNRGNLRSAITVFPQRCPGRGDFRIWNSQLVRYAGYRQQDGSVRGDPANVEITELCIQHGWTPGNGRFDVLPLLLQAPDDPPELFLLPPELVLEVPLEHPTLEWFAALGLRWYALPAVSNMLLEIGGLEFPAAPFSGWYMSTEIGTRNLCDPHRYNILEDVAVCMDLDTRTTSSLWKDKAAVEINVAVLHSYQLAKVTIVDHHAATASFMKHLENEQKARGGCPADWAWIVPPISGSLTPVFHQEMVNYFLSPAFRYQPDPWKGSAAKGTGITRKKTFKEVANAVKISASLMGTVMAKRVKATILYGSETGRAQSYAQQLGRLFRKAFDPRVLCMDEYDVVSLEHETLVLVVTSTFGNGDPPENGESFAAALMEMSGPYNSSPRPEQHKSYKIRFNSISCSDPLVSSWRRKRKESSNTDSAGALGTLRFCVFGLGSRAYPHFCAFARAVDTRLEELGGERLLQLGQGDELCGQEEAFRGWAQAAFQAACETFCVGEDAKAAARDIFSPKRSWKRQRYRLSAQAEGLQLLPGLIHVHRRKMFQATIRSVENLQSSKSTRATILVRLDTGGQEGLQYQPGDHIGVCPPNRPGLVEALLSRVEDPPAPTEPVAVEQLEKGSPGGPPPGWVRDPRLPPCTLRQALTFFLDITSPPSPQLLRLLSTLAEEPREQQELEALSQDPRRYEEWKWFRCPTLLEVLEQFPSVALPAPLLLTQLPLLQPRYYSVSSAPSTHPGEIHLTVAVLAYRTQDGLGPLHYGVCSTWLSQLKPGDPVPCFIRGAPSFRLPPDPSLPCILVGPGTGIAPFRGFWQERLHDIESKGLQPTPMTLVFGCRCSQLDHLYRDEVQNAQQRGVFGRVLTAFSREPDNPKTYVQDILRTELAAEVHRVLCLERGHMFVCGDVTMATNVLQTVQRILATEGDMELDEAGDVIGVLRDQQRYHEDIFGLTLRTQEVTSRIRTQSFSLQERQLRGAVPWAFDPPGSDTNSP

[2] = biological target: T2, 5-HT1B (Rattus norvegicus, UniProt P28564); assay: 5-HT1B binding assay (agonist radioligand), rat cerebral cortex; settings: Table 11, rat 1B receptor binding
T2 construct: from tissue; host or cells: rat cerebral cortex
T2 sequence (P28564 whole entry): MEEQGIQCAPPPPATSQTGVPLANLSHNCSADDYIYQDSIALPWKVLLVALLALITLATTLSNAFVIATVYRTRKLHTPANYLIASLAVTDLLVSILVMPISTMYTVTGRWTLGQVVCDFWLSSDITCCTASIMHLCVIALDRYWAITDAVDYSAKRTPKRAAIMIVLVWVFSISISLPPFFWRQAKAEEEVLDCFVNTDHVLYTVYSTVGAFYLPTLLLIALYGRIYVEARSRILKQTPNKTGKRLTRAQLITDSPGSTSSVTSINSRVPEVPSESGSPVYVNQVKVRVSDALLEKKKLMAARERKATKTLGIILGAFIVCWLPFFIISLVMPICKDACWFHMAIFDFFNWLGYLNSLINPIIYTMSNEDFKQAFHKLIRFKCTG
Protocol: 5-HT1D binding assays (agonist radioligand) were performed using bovine caudate membranes according to the methods of Heuring and Peroutka (J. Neurosci., 7: 894-903 (1987)). 5-HT1B (rat cerebral cortex) binding assays (agonist radioligand) were performed according to the method of Hoyer et. al. (Eur. J. Pharmacol., 118: 1-12 (1995)). For the purpose of result analysis, the specific ligand binding to the receptors is defined as the difference between the total binding and the nonspecific binding as determined in the presence of an excess of unlabelled ligand. The results are expressed as a percent of control specific binding obtained in the presence of the test compounds. IC50 values (concentration causing a half-maximal inhibition of control specific binding) and Hill coefficients (nH) were determined by non-linear regression analysis of the competition curves using Hill equation curve fitting and the inhibition constants (Ki) were calculated from the Cheng Prusoff equation (Ki=IC50/(1+(L/KD)), where L=concentration of radioligand in the assay, and KD=affinity of the radioligand for the receptor).

[3] = biological target: T3, Nitric oxide synthase (neuronal, human recombinant) nNOS (Homo sapiens, UniProt P29475); assay: nNOS (human) enzyme assay, [3H]-L-arginine to L-citrulline; type: biochemical; settings: for IC50: Table 10, human nNOS, read-out: nNOSh; for e/n: Table 10, ratio eNOS/nNOS
T3 construct: purchased Axxora LLC ALX-201-068
T3 sequence (P29475 whole entry): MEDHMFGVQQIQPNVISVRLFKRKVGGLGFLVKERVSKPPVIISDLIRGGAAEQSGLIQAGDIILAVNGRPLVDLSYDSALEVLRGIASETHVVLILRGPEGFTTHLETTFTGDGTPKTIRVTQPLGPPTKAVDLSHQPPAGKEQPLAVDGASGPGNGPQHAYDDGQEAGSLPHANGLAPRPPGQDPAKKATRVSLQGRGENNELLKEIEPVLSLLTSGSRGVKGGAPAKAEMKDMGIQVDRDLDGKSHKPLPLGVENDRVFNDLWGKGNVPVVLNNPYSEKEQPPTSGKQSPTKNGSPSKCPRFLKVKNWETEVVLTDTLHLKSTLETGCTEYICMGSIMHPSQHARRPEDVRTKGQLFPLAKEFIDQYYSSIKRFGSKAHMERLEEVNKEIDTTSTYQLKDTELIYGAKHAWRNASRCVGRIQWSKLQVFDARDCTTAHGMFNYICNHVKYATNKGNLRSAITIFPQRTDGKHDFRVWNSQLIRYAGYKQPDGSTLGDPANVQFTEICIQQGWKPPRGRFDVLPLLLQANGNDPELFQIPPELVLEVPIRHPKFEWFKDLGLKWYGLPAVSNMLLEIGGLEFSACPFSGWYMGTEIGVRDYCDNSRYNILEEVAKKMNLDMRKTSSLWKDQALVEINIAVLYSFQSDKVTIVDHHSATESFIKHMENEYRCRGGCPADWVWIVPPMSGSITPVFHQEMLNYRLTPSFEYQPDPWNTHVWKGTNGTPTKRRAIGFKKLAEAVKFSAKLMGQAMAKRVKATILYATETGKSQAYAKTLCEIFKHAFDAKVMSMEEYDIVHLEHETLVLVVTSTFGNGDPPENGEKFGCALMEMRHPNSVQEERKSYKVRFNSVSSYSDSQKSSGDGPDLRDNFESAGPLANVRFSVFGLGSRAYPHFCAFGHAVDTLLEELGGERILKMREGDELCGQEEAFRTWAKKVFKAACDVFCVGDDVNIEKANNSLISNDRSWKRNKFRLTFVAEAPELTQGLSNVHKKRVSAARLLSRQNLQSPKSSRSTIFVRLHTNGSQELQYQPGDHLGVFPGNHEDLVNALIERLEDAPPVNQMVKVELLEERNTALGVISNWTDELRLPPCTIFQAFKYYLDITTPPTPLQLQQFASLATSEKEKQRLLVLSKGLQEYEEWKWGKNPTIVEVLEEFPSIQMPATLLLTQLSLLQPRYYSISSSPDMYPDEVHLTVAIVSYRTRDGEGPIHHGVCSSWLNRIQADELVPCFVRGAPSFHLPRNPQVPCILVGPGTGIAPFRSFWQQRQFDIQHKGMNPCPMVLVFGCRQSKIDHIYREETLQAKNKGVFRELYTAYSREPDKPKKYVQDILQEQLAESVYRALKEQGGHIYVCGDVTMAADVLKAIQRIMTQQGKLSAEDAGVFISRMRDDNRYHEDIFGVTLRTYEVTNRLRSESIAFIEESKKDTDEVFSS

[4] = tested on: rats with L5/L6 spinal nerve ligation; assay: Chung spinal nerve ligation (SNL) model of neuropathic-like pain; type: in vivo; settings: rat, 30 mg/kg i.p.
Protocol: (a) Chung Model of Injury-induced Neuropathic-like Pain: The experimental designs for the Chung Spinal Nerve Ligation SNL Model assay for neuropathic pain are depicted in the Figure below. Nerve ligation injury was performed according to the method described by Kim and Chung (Kim and Chung, Pain 50:355-363, 1992). This technique produces signs of neuropathic dysesthesias, including tactile allodynia, thermal hyperalgesia, and guarding of the affected paw. Rats were anesthetized with halothane, and the vertebrae over the L4 to S2 region were exposed. The L5 and L6 spinal nerves were exposed, carefully isolated, and tightly ligated with 4-0 silk suture distal to the DRG. After ensuring homeostatic stability, the wounds were sutured, and the animals allowed to recover in individual cages. Sham-operated rats were prepared in an identical fashion except that the L5/L6 spinal nerves were not ligated. […] After a period of recovery following the surgical intervention, rats show enhanced sensitivity to painful and normally non-painful stimuli.

[5] = Human liver microsome in vitro metabolic stability assay; type: in vitro ADME; settings: for Peak Area Ratio 0 min / Peak Area Ratio 15 min / Peak Area Ratio 30 min / Peak Area Ratio 60 min: human liver microsomes
Protocol: The compounds (10 μM) were incubated with pooled human liver microsomes in the presence and absence of the co-factor, β-Nicotinamide adenine dinucleotide phosphate (NADP^+), required for oxidative metabolism by the Cytochrome P-450 (CYP) and flavin containing monooxygenase (FMO) enzymes. A tandem liquid chromatography mass spectrometry (LC-MS/MS) method was developed and/or qualified for each compound for measuring relative stability of 6a, 6b, and 18 in the terminated reaction mixtures. The relative disappearance of the test compounds following 15, 30, and 60 min of incubation with liver microsomes, NADP^+, and an NADPH-regenerating system was determined in duplicate samples. 6a, 6b, and 18 stability following 0 and 60 min of incubation with liver microsomes in the absence of NADP^+ was also determined.
Samples for each test compound generated from the assay were analyzed as one batch by the qualified LC-MS/MS method. The sample batch consisted of the following: initial system check standards (three replicates), the assay samples (in duplicate) and the final system check standards (three replicates). A batch was considered acceptable if the system check injection acceptance criteria described above was met.
The study was conducted with cryopreserved human liver microsomes, pooled from 15 donors (mixed pool of male and female donors). Pooled donor microsomes were used in order to represent an “average” metabolic activity. The microsomes have been characterized by the supplier for Phase I (CYP1A2, CYP2A6, CYP2B6, CYP2C8, CYP2C9, CYP2C19, CYP2D6, CYP2E1, CYP3A4, CYP4A11 and FMO) and Phase II (UGT1A1, UGT1A4 and UGT1A9) enzymatic activity.
1. The assay was performed with 0.5 mg/mL human liver microsomes in 50 mM potassium phosphate buffer, pH 7.4 (PPB), and in the presence of an NADPH regenerating system (1.3 mM NADP^+, 3.3 mM glucose-6-phosphate, 0.4 U/mL glucose-6-phosphate dehydrogenase) and 3.3 mM MgCl2. All incubations were performed in duplicate. One concentration of test compound was tested (10 μM). 2. A stock solution of microsomes (20 mg/mL) was thawed in a 37° C. water bath on the day of the assay and then immediately placed on ice. The microsomes were then diluted with an appropriate volume of PPB, such that the final protein concentration in the assay was 0.5 mg/mL, and the final PPB concentration was 50 mM. 3. An appropriate aliquot of the 1 mM stock solution of the test compounds (in water) was added to the diluted microsomes, and then the mixture was warmed to 37° C. for 5 min in an incubator. […] These samples represent the time zero samples. 4. An aliquot (375 μL) of the pre-warmed liver microsomes and test compound mixture was dispensed into a well of a 24-well plate. A 125 μL aliquot of pre-warmed (37° C. for 5 min) 4-fold concentrated NADPH regenerating system solution was then added to start the reaction. Reaction mixtures (0.5 mL) were incubated in a shaking incubator (150 rpm) at 37° C. 5. One hundred μL of the reaction mixture was sampled following 15, 30, and 60 min of incubation. Each sample with test compound was immediately added to a chilled labeled centrifuge tube containing 100 μL of ice cold methanol to terminate the reaction. 6. All samples were mixed by vortex and then centrifuged (15,000×g for 10 min at 4° C.) to pellet the protein. An aliquot of the supernatant from each sample was then transferred to a clean, labeled centrifuge tube and stored at −70° C. until bioanalysis. 7. […] 8. As a control, test compound was incubated with microsomes in the absence of NADP^+. One hundred μL of the reaction mixture was sampled for control samples following 0 and 60 min of incubation as detailed above. 9. Data sheets with the date of the experiment, the Study No., the compound IDs, the sampling times, a plate map and any deviations to the protocol were recorded.
The mean of the test compound to the internal standard peak area ratios were calculated for the zero time sample.

IC50 [1] | IC50 [2] | IC50 [3] | e/n [3] | Peak Area Ratio 0 min ([5]; +NADP+, 10 μM) | Peak Area Ratio 15 min ([5]; +NADP+, 10 μM) | Peak Area Ratio 30 min ([5]; +NADP+, 10 μM) | Peak Area Ratio 60 min ([5]; +NADP+, 10 μM) | half-life at 10 μM ([5]; both sexes, pooled human liver microsomes, pH 7.4, human liver microsomes, with NADPH regenerating system, read-out: estimated half-life for disappearance from the microsomal reaction mixture) | Peak Area Ratio 0 min ([5]; −NADP+, 10 μM) | Peak Area Ratio 60 min ([5]; −NADP+, 10 μM) | Compound | reversal of tactile hyperthesia [4] | reversal of thermal hyperalgesia (antihyperalgesic effect) [4] | metabolic stability in human liver microsomes ([5]; 60 min incubation, 10 μM)
45500 nM | 1400 nM | 680 nM | 67 | 25.8 | 25.8 | 23.7 | 19.4 | 2.2 h | 22.0 | 20.2 | CN1CCC(c2c[nH]c3ccc(NC(=N)c4cccs4)cc23)C1 (single isomer, unassigned) [Compound 6a, N-(3-(1-Methylpyrrolidin-3-yl)-1H-indol-5-yl)thiophene-2-carboximidamide] | not | only weakly | 
20600 nM | 705 nM | 205 nM | 100 | 20.6 | 20.5 | 21.4 | 20.5 |  | 20.2 | 20.6 | CN1CCC(c2c[nH]c3ccc(NC(=N)c4cccs4)cc23)C1 (single isomer, unassigned) [Compound 6b, N-(3-(1-Methylpyrrolidin-3-yl)-1H-indol-5-yl)thiophene-2-carboximidamide] | reversal of tactile hyperthesia | reversal of thermal hyperalgesia; also recorded: clear antihyperalgesic effect | metabolically stable over 60 min of incubation
